Consider six compounds from patent publication US20240000878A1 (priority 2022, published 2024).

Molecules are shown by their SMILES. In brackets after ≈: the same amount, converted by molar mass. Several values for one entry are separate records, joined by “and”; a condition that tells them apart may be missing. Identical values can stand only once. Counter-ions that a name gives are not always drawn.

Holding throughout (assay): microbe, parasite or virus in culture
What all share (assay type): cell-based

Test [1] deals with Influenza A/CA/07/09 (H1N1). Conditions: for LRV (log reduction value): average reduction of virus vs average virus control.
The test system of test [2] is Respiratory Syncytial Virus (RSV) strain A2. The conditions noted are these: for LRV (log reduction value): average reduction of virus vs average virus control; for antiviral activity against RSV (in words): summary of Table 2.
Test [3] relates to SARS-CoV-2 strain USA/PHC658/2021 (B.1.617.2; delta). The conditions noted are these: for LRV (log reduction value): average reduction of virus vs average virus control.

In the case of `OC[C@@H](O)[C@@H](O)CO` [Erythritol], the “LRV (log reduction value)” value was 3.17 in test [1] (concentration 5 %, day 3); 1.84 in test [2] (concentration 5 %, day 5); 3.29 in test [3] (concentration 5 %, day 6). In addition, in test [1] (summary of Table 1), the “antiviral activity against H1N1 (in words)” value is reported as “showed antiviral activity”.

Usually EC90 stands for the concentration at which the effect reaches the 90% level. Read a high EC90 as a need for much substance. `NC(=O)c1ncn([C@@H]2O[C@H](CO)[C@@H](O)[C@H]2O)n1` [Ribavirin, reference compound]: the EC90 was found to be 3.1 µg/mL (≈ 12.7 µM) in test [1] (Influenza A virus, H1N1, 72 h) and 4.6 µg/mL (≈ 18.8 µM) in test [2] (human respiratory syncytial virus, 120 h, 90% effective concentration (reduce virus yield by 1 log10), regression analysis, day 5). Also, the “Log10 CCID50 virus per 0.2 mL” value in test [1] (concentration 100 μg/ml) is recorded as 0.67; in test [2] (concentration 100 μg/ml), 1.30. Also, the SI result is reported as “SI >32” in test [1] (with the EC90, day 3) and “SI >22” in test [2] (with the EC90, day 5).

Turning to `OC[C@@H](O)[C@@H](O)[C@H](O)[C@@H](O)CO` [Sorbitol], the “LRV (log reduction value)” value in test [1] (concentration 5 %, day 3) is listed as 1.47; in test [2] (concentration 5 %, day 5) it was 2.49; in test [3] (concentration 5 %, day 6), 3.5. Also, the “Log10 CCID50 virus per 0.2 mL” value in test [2] (concentration 5 %) is 2.00; in test [3] (concentration 5 %), 1.50 and 1.67. In addition, the “antiviral activity against RSV (in words)” value in test [2] is reported as “antiviral activity”.

Turning to `OC[C@@H](O)[C@H](O)[C@@H](O)CO` [Xylitol], in test [1] (concentration 5 %), the “Log10 CCID50 virus per 0.2 mL” value is 6.00. Moreover, the “LRV (log reduction value)” value was 1.27 in test [1] (concentration 5 %, day 3); 2.65 in test [2] (concentration 5 %, day 5); 3.84 in test [3] (concentration 5 %, day 6). In addition, the “antiviral activity against RSV (in words)” value in test [2] was “antiviral activity”.

For `CN(C)CCC(c1ccc(Cl)cc1)c1ccccn1` (centres unmarked) [Chlorpheniramine Maleate, reference compound], the “LRV (log reduction value)” value amounted to 6.02 in test [1] (concentration 1 %, day 3); 2.99 in test [2] (concentration 1 %, day 5); 2.69 in test [3] (concentration 1 %, day 6). Besides, the “Log10 CCID50 virus per 0.2 mL” value in test [2] (concentration 1 %) is 1.50; in test [3] (concentration 1 %), 2.30 and 2.50.

In the case of `CCC(CC)COC(=O)[C@H](C)N[P@](=O)(OC[C@H]1O[C@@](C#N)(c2ccc3c(N)ncnn23)[C@H](O)[C@@H]1O)Oc1ccccc1` [Remdesivir], the 90% effect level in test [3] (Severe acute respiratory syndrome coronavirus 2, 144 h) (EC90) was put at 0.12 µg/mL (≈ 0.199 µM). In test [3] (concentration 5 μg/ml), the “Log10 CCID50 virus per 0.2 mL” value came to 0.67. Further, the SI entry in test [3] (with the EC90, day 6) is “SI >42”.
